Results as given in patent publication US20160281050A1, “METHODS FOR TREATING A CULTURE OF HAEMATOCOCCUS PLUVIALIS FOR CONTAMINATION USING SALT AND HYDROGEN PEROXIDE” (HELIAE DEVELOPMENT LLC, priority 2015, published 2016).

Tested on: Haematococcus pluvialis (Strain 2)
Experiment: % cell lysis, culture dry weight and % carotenoid by UV method in 230 L reactors, salt treatment (Example 12)
Assay type: cell-based
Description: This test was done side by side in flasks (0.1 L) and in reactors located in a greenhouse operating in conditions: reactor volume of 230 L; Daily PAR of 20 mol m^−2 d^−1; pH (not measured); and paddlewheel speed of 21 RPM. […] The flask cultures were mixed by shaking at 140 rpm and received 300-400 μmol/m^2 s of photosynthetically active radiation (PAR) in 12 hour light cycles and constant supply of 2.5% CO2. The motility of the culture was monitored by visual observation under a microscope. […] Nine 230 L reactors were also seeded with culture from bioreactor #2410 on the same day as the flasks and brought to 2 ppt concentration of salt. Once motility of the cells was reduced to <10% (day 3 of culture for flasks and day 2 for 230 L reactors) the level of salt was elevated to a point between 4-18 ppt and compared to the culture in two reactors remaining at 2 ppt salt. Flasks and 230 L reactors were monitored for percentage of cell lysis via visual observation under a microscope, culture dry weight (biomass accumulation in g/L), and percentage of chytrid infection via visual observation under a microscope. Carotenoid production, a proxy for determining astaxanthin, was quantified every other day of culture in the 230 L reactors using the UV method.

Structure (SMILES): [Cl-].[Na+] [NaCl, sodium chloride]
- Culture Dry Weight in 230L reactors (NaCl 2 ppt (1st 2 ppt column), time 12 d): 0.187 g/L
- Culture Dry Weight in 230L reactors (NaCl 2 ppt, time 0 d): 0.043 g/L
- Culture Dry Weight in 230L reactors (NaCl 2 ppt, time 1 d): 0.048 g/L
- Culture Dry Weight in 230L reactors (NaCl 2 ppt, time 2 d): 0.072 g/L
- Culture Dry Weight in 230L reactors (NaCl 2 ppt, time 4 d): 0.113 g/L
- Culture Dry Weight in 230L reactors (NaCl 2 ppt, time 5 d): 0.125 g/L
- Culture Dry Weight in 230L reactors (NaCl 2 ppt, time 6 d): 0.130 g/L
- Culture Dry Weight in 230L reactors (NaCl 2 ppt, time 7 d): 0.150 g/L
- Culture Dry Weight in 230L reactors (NaCl 2 ppt, time 8 d): 0.170 g/L
- Culture Dry Weight in 230L reactors (NaCl 2 ppt, time 9 d): 0.218 g/L
- Culture Dry Weight in 230L reactors (NaCl 2 ppt, time 10 d): 0.150 g/L
- Culture Dry Weight in 230L reactors (NaCl 4 ppt, time 0 d): 0.037 g/L
- Culture Dry Weight in 230L reactors (NaCl 4 ppt, time 1 d): 0.063 g/L
- Culture Dry Weight in 230L reactors (NaCl 4 ppt, time 2 d): 0.080 g/L
- Culture Dry Weight in 230L reactors (NaCl 4 ppt, time 4 d): 0.115 g/L
- Culture Dry Weight in 230L reactors (NaCl 4 ppt, time 5 d): 0.120 g/L
- Culture Dry Weight in 230L reactors (NaCl 4 ppt, time 6 d): 0.125 g/L
- Culture Dry Weight in 230L reactors (NaCl 4 ppt, time 7 d): 0.148 g/L
- Culture Dry Weight in 230L reactors (NaCl 4 ppt, time 8 d): 0.153 g/L
- Culture Dry Weight in 230L reactors (NaCl 4 ppt, time 9 d): 0.198 g/L
- Culture Dry Weight in 230L reactors (NaCl 4 ppt, time 10 d): 0.143 g/L
- Culture Dry Weight in 230L reactors (NaCl 4 ppt, time 11 d): 0.148 g/L
- Culture Dry Weight in 230L reactors (NaCl 4 ppt, time 12 d): 0.150 g/L
- Culture Dry Weight in 230L reactors (NaCl 5 ppt, time 0 d): 0.040 g/L
- Culture Dry Weight in 230L reactors (NaCl 5 ppt, time 1 d): 0.070 g/L
- Culture Dry Weight in 230L reactors (NaCl 5 ppt, time 4 d): 0.162 g/L
- Culture Dry Weight in 230L reactors (NaCl 5 ppt, time 5 d): 0.185 g/L
- Culture Dry Weight in 230L reactors (NaCl 5 ppt, time 6 d): 0.213 g/L
- Culture Dry Weight in 230L reactors (NaCl 5 ppt, time 7 d): 0.223 g/L
- Culture Dry Weight in 230L reactors (NaCl 5 ppt, time 8 d): 0.270 g/L
- Culture Dry Weight in 230L reactors (NaCl 5 ppt, time 9 d): 0.293 g/L
- Culture Dry Weight in 230L reactors (NaCl 5 ppt, time 10 d): 0.265 g/L
- Culture Dry Weight in 230L reactors (NaCl 5 ppt, time 11 d): 0.250 g/L
- Culture Dry Weight in 230L reactors (NaCl 5 ppt, time 12 d): 0.280 g/L
- Culture Dry Weight in 230L reactors (NaCl 6 ppt, time 0 d): 0.040 g/L
- Culture Dry Weight in 230L reactors (NaCl 6 ppt, time 1 d): 0.058 g/L
- Culture Dry Weight in 230L reactors (NaCl 6 ppt, time 4 d): 0.140 g/L
- Culture Dry Weight in 230L reactors (NaCl 6 ppt, time 5 d): 0.178 g/L
- Culture Dry Weight in 230L reactors (NaCl 6 ppt, time 6 d): 0.198 g/L
- Culture Dry Weight in 230L reactors (NaCl 6 ppt, time 7 d): 0.218 g/L
- Culture Dry Weight in 230L reactors (NaCl 6 ppt, time 8 d): 0.260 g/L
- Culture Dry Weight in 230L reactors (NaCl 6 ppt, time 9 d): 0.260 g/L
- Culture Dry Weight in 230L reactors (NaCl 6 ppt, time 10 d): 0.250 g/L
- Culture Dry Weight in 230L reactors (NaCl 6 ppt, time 11 d): 0.282 g/L
- Culture Dry Weight in 230L reactors (NaCl 6 ppt, time 12 d): 0.323 g/L
- Culture Dry Weight in 230L reactors (NaCl 7 ppt, time 0 d): 0.035 g/L
- Culture Dry Weight in 230L reactors (NaCl 7 ppt, time 1 d): 0.048 g/L
- Culture Dry Weight in 230L reactors (NaCl 7 ppt, time 4 d): 0.145 g/L
- Culture Dry Weight in 230L reactors (NaCl 7 ppt, time 5 d): 0.150 g/L
- Culture Dry Weight in 230L reactors (NaCl 7 ppt, time 6 d): 0.170 g/L
- Culture Dry Weight in 230L reactors (NaCl 7 ppt, time 7 d): 0.198 g/L
- Culture Dry Weight in 230L reactors (NaCl 7 ppt, time 8 d): 0.260 g/L
- Culture Dry Weight in 230L reactors (NaCl 7 ppt, time 9 d): 0.148 g/L
- Culture Dry Weight in 230L reactors (NaCl 7 ppt, time 10 d): 0.205 g/L
- Culture Dry Weight in 230L reactors (NaCl 7 ppt, time 11 d): 0.218 g/L
- Culture Dry Weight in 230L reactors (NaCl 7 ppt, time 12 d): 0.245 g/L
- Culture Dry Weight in 230L reactors (NaCl 8 ppt, time 0 d): 0.018 g/L
- Culture Dry Weight in 230L reactors (NaCl 8 ppt, time 1 d): 0.057 g/L
- Culture Dry Weight in 230L reactors (NaCl 8 ppt, time 4 d): 0.145 g/L
- Culture Dry Weight in 230L reactors (NaCl 8 ppt, time 5 d): 0.168 g/L
- Culture Dry Weight in 230L reactors (NaCl 8 ppt, time 6 d): 0.193 g/L
- Culture Dry Weight in 230L reactors (NaCl 8 ppt, time 7 d): 0.205 g/L
- Culture Dry Weight in 230L reactors (NaCl 8 ppt, time 8 d): 0.237 g/L
- Culture Dry Weight in 230L reactors (NaCl 8 ppt, time 9 d): 0.218 g/L
- Culture Dry Weight in 230L reactors (NaCl 8 ppt, time 10 d): 0.257 g/L
- Culture Dry Weight in 230L reactors (NaCl 8 ppt, time 11 d): 0.220 g/L
- Culture Dry Weight in 230L reactors (NaCl 8 ppt, time 12 d): 0.263 g/L
- Culture Dry Weight in 230L reactors (NaCl 10 ppt, time 0 d): 0.045 g/L
- Culture Dry Weight in 230L reactors (NaCl 10 ppt, time 1 d): 0.060 g/L
- Culture Dry Weight in 230L reactors (NaCl 10 ppt, time 4 d): 0.120 g/L
- Culture Dry Weight in 230L reactors (NaCl 10 ppt, time 5 d): 0.130 g/L
- Culture Dry Weight in 230L reactors (NaCl 10 ppt, time 6 d): 0.168 g/L
- Culture Dry Weight in 230L reactors (NaCl 10 ppt, time 7 d): 0.145 g/L
- Culture Dry Weight in 230L reactors (NaCl 10 ppt, time 8 d): 0.145 g/L
- Culture Dry Weight in 230L reactors (NaCl 10 ppt, time 9 d): 0.160 g/L
- Culture Dry Weight in 230L reactors (NaCl 10 ppt, time 10 d): 0.173 g/L
- Culture Dry Weight in 230L reactors (NaCl 10 ppt, time 11 d): 0.145 g/L
- Culture Dry Weight in 230L reactors (NaCl 10 ppt, time 12 d): 0.168 g/L
- Culture Dry Weight in 230L reactors (NaCl 18 ppt, time 0 d): 0.035 g/L
- Culture Dry Weight in 230L reactors (NaCl 18 ppt, time 1 d): 0.052 g/L
- Culture Dry Weight in 230L reactors (NaCl 18 ppt, time 4 d): 0.135 g/L
- Culture Dry Weight in 230L reactors (NaCl 18 ppt, time 5 d): 0.173 g/L
- Culture Dry Weight in 230L reactors (NaCl 18 ppt, time 6 d): 0.180 g/L
- Culture Dry Weight in 230L reactors (NaCl 18 ppt, time 7 d): 0.165 g/L
- Culture Dry Weight in 230L reactors (NaCl 18 ppt, time 8 d): 0.165 g/L
- Culture Dry Weight in 230L reactors (NaCl 18 ppt, time 9 d): 0.175 g/L
- Culture Dry Weight in 230L reactors (NaCl 18 ppt, time 10 d): 0.183 g/L
- Culture Dry Weight in 230L reactors (NaCl 18 ppt, time 11 d): 0.200 g/L
- Culture Dry Weight in 230L reactors (NaCl 18 ppt, time 12 d): 0.175 g/L
